Here are results for 88 molecules from a melting point compilation (Tetko et al.; mined from patent text by program, amines drawn as free bases though some values may be those of a salt).

`O=C(O)c1ccc(OCCCc2cc(-c3ccc(C(F)(F)F)cc3)no2)cc1`: the melting point was 221 to 222 °C.
In the case of `O=C(Nc1cc(Cl)c(F)cc1-c1ccccc1)c1cccnc1Cl`, the melting point lay within 131 to 136 °C.
As for `O=C1NC(=S)SC1=Cc1ccc(OCc2ccccc2)cc1`, the figure is greater than 225 °C; as for `O=C1NC(O)C2=C1CN=C(c1ccccc1Cl)c1cc(Cl)ccc12` (stereo not drawn), 247 to 249 °C.
`O=C(Cc1ccc(I)cc1)NC[C@H]1CCCN1`: the melting point was 120 °C.
For `O=C(Nc1ccc(Oc2ccnc(N3CCC(O)CC3)n2)c2ccccc12)c1cc(F)cc(N2CCCCC2)c1` the value was 182 to 184 °C; for `COC(=O)C(C)(C)CCCOc1cc(C)c(N2C(=O)c3ccccc3C2=O)cc1C`, 109 to 111 °C.
Consider `C#CCNc1ccc([N+](=O)[O-])cc1C(F)(F)F`, for which the melting point lay within 71 to 72 °C.
For `Cc1cc(C)cc(C(=O)N2CCN(C(=O)CN(CCO)C3CCN(Cc4ccccc4)CC3)C(c3ccc(Cl)c(Cl)c3)C2)c1` (racemic) the value was 70 to 73 °C.
For `O=C(O)COc1cc(F)ccc1C(=O)NCc1cccc([N+](=O)[O-])c1`, the melting point fell in the range of 148 to 151 °C.
For `O=[N+]([O-])c1ccc(Br)c2nsnc12` the value was 216 to 218 °C.
For `COc1cc2c(cc1OC)CCCCC(C(=O)N1CCN(C(=O)c3cc(OC)c(OC)c(OC)c3)CC1)=C2` the value was 170 to 171 °C; for `Cc1nccc2[nH]c(=O)c(C#N)cc12`, 275 to 277 °C.
As for `O=c1c(-c2cccc(Cl)c2)coc2cc(O)c(O)cc12`, the figure is 308 °C.
With `O=C(NC(CC12CC3CC(CC(C3)C1)C2)NC(=N[N+](=O)[O-])Nc1cccnc1)c1ccc(Cl)cc1` (stereo not drawn), the melting point fell in the range of 219 to 220 °C.
For `CCSCc1ccc(C(=O)c2ccc(Cl)cc2)cc1` the value was 33 to 34 °C; for `O=C(NCc1ccccc1)NC(Cc1ccccc1)C(=O)O` (stereo not drawn), 115 to 117 °C.
As for `COc1ccc(C(=O)c2cc(-c3ccc(Cl)cc3)c(N3CCOCC3)s2)cc1`, the figure is 120 °C.
For `CSc1nnc(C(C)(C)C)[nH]1` the value was 191 to 194 °C; for `O=c1nc2n(c(=O)n1CCBr)CCCC2`, 64 to 66 °C.
Molecule `CN1C(=O)CC[C@]2(C)c3ccc(-c4nc5ccccc5[nH]4)cc3CC[C@@H]12` came in with a melting point of 183 to 186 °C.
On to `N#CC1CCC(c2ccc(N)cc2)CC1` (stereo not drawn), for which the melting point was 132 to 140 °C.
For `Cc1cn(-c2ccc(NC(=O)c3ccc(Cl)c(C#Cc4ccc(NC5CCC5)nn4)c3)cc2C(F)(F)F)cn1` the value was 153 to 155 °C.
For `COCCOc1ccc(CCC(=O)NS(=O)(=O)c2ccc(F)cc2)c(Oc2ncc(C(F)(F)F)cc2Cl)c1` the value was 136 to 138 °C; for `CCn1c(C)nc2cc(C(F)(F)F)c(Cl)c(NC)c21`, 116 to 119 °C; for `CC(=O)Nc1ccc2nc(NC3=NCCN3)[nH]c2c1`, 294 °C.
As for `COC(=O)NC1(c2ccccc2)CCN(Cc2ccccc2)CC1`, the figure is 121 to 122 °C.
Regarding `CN(C)c1ccc(C2(c3ccc(N(C)C)cc3N(C)C)OC(=O)c3c(Cl)c(Cl)c(Cl)c(Cl)c32)cc1` (stereo not drawn), the melting point lay in the range of 227 to 229 °C.
In the case of `C[C@@H](n1cnc2c(Cl)cccc2c1=O)[C@](O)(Cn1cncn1)c1ccc(F)cc1F`, the melting point is 110 to 113 °C.
For `CCOC(=O)c1cnn2c1c(N1CCN(c3ccccc3)CC1)nc1ccccc12` the value was 134 to 135 °C; for `CCOC(=O)c1cnc2c(NC(=O)c3c(Cl)cccc3Cl)cccc2c1C`, 159 to 162 °C.
For `Cc1cnc(N2CCN(c3ccc([N+](=O)[O-])cc3)CC2)n1C` the value was 204 to 205 °C; for `COc1ccc(Cn2cnc3c(-c4ccco4)nc(C4CC4)nc32)cc1`, 115 to 116 °C.
As for `CCOC(=O)C1=C(C#N)NC(C)=C(C(=O)OCCOCc2ccccc2)C1c1cccc([N+](=O)[O-])c1` (stereo not drawn), the figure is 114 to 115 °C.
On to `CC(C)(C)c1csc(-c2cc3cc(CCc4ccccc4C(=O)O)ccc3o2)n1`, for which the melting point fell in the range of 147 to 148 °C.
`CCCCC(=NCC(=O)OCC)c1cc(Cl)ccc1N` showed a melting point of 96 to 97 °C.
For `COc1ccccc1N1CCN(CCNc2ccccc2[N+](=O)[O-])CC1` the value was 117 to 118 °C; for `c1ccc(OCCSCc2nnc(-c3ccc(OCCCCN4CCCC4)cc3)o2)cc1`, 45 °C.
As for `COC(=O)C1CC2c3cccc4c3C(CN4)CC2N(C)C1` (stereo not drawn), the figure is 110 to 120 °C.
For `COC(=O)C=Cc1ccc(OC)c(OC)c1` the value was 72 to 74 °C; for `CC(C)c1cc2n(CCc3ccccc3)cc(C(=O)O)c(=O)n2n1`, 220 to 225 °C.
Turning to `Cc1ccc(S(=O)(=O)N2CCC[C@H](CC(=O)NC(C)C)c3ccccc32)cc1`, the melting point lay in the range of 131 to 133 °C.
Take `CC(CC(=O)O)C(=O)c1ccc(N2CCOCC2)c([N+](=O)[O-])c1` (stereo not drawn): the melting point is 127 to 129 °C.
For `O=C1CCC(N2C(=O)c3ccc(CNC(=O)C4CC4)cc3C2=O)C(=O)N1` (stereo not drawn) the value was 163 to 165 °C.
Molecule `CN(C)CCCOc1ccc2c(=O)c3ccc(OCCCN(C)C)cc3oc2c1` gave a melting point of 69 to 70 °C.
As for `N#Cc1cccc(-c2cnn(-c3ccccn3)c2)c1`, the figure is 160 to 161 °C; as for `CCOC(=O)COc1nc(-c2ccccc2)nc(C)c1C`, 90 to 91 °C.
In the case of `O=C(O)c1cn(CC2CC2)c2cc(Cl)ccc12`, the melting point is 219 to 220 °C.
For `CCN(CC)C(=O)Oc1c(N2CCCC2)c(=O)n(-c2ccccc2)c2ncccc12` the value was 158 to 160 °C; for `ONC(=S)C=Cc1cccc2ccccc12`, 129 to 130 °C.
As for `CC1=C2CCN(CCC(N)=O)CC2c2ccccc21` (stereo not drawn), the figure is 169 to 170 °C; as for `CN(C)C1=NC(=O)C(Cc2cccc(-c3ccc(O)c(C4(C)CCCCC4)c3)c2)S1` (stereo not drawn), 108 to 110 °C.
For `COc1ccc([C@@H]2Sc3ccccc3N(CCN(C)C)C(=O)[C@@H]2O)cc1` (relative stereo) the value was 88 to 90 °C; for `Cc1nc(-c2ccc(O)cc2)c(C(C)C)s1`, 165 °C; for `O=C1c2ccccc2C(=O)N1Cc1ccc(Br)nc1`, 130 to 131 °C.
For the molecule `COC(=O)c1cn(C2CC2)c2nc(C)ccc2c1=O`, the melting point is 204 to 205 °C.
In turn, `COc1ccnc(CCc2nc3cc(-c4ccc(S(=O)(=O)N(C)C)cc4)cnc3[nH]2)c1` registered a melting point of 217 to 218 °C.
For `CCOC(=O)c1ccccc1-n1c(=O)[nH]c2ccccc2c1=O` the value was 196 to 197 °C; for `CC(C)c1nn(-c2ccc(C(F)(F)F)cn2)cc1CCCOc1c(C#N)cccc1CC(=O)O`, 144 to 145 °C.
`COC(=O)c1cccc(CN2C(=O)C3(COc4cc5c(cc43)OCCO5)c3ccccc32)c1` (stereo not drawn) showed a melting point of 89 to 97 °C.
As for `CCCCCCc1ccc(C=CC(=O)c2ccc(OCC=C(C)C)cc2OCC(=O)O)cc1`, the figure is 106 to 108 °C; as for `O=P(ONc1ccccc1)(ONc1ccccc1)Oc1ccccc1`, 176 to 178 °C.
As for `COc1ccc(-c2cnc(N)c(Br)n2)cc1`, the figure is 166 to 170 °C; as for `Cc1cc(C(N)=O)c2c(c1)C(C(Cl)(Cl)Cl)OC(C(Cl)(Cl)Cl)O2` (stereo not drawn), 281 to 283 °C.
For `CNC(=O)c1ccc(F)c2c1CC(N(CCCCc1c[nH]c3ccc(F)cc13)C1CCC1)CO2` (stereo not drawn) the value was 123 °C; for `CC(=O)C1(C)COC(C)(C)OC1`, 48 to 50 °C.
`CCN1CCN(c2nccc(Oc3ccc(NC(=O)c4cc(F)cc(N5CCOCC5)c4)c4ccccc34)n2)CC1` displayed a melting point of 185 to 186 °C.
As for `CN1CCCC1CNC(=O)c1ccc(S(=O)(=O)N(C)C)c2c1OCCO2` (stereo not drawn), the figure is 165 to 166 °C; as for `Cc1cc(C)n(-c2nnc(-c3ccc(Cl)cc3)c(C)n2)n1`, 151 to 152 °C.
Turning to `CC(CCCCCOCCc1ccccc1)NCC(O)c1ccc2c(n1)COC(c1ccccc1)O2` (stereo not drawn), the melting point fell in the range of 61 to 67 °C.
For `O=C(NCCCCCCOC(=O)N1CCC2(CCCC2)CC1)OC1CCN(C(=O)Oc2ccc3oc4ccccc4c3c2)CC1` the value was 100 to 102 °C.
For `Cc1cc(CN(Cc2cc(C(F)(F)F)cc(C(F)(F)F)c2)c2nnn(C)n2)c(N(CC2CC2)CC2CC2)nc1C` the value was 103 °C; for `CCCN1CCCC2Cc3nc(NC(C)=O)sc3CC21` (stereo not drawn), greater than 200 °C; for `CCOC(=O)CN1C(=O)COc2c(Cl)nc(C)nc21`, 69 to 70 °C.
For `CNC(=O)CC(SC(=O)c1ccccc1)C(CC(C)C)C(=O)NC(Cc1ccc(OC)cc1)C(=O)NC` (stereo not drawn) the value was 140 to 144 °C; for `COC1(OC)CC(Nc2ncnc3c2ncn3C2OC(CO)C(O)C2O)NC1=O` (stereo not drawn), 176 to 178 °C.
Molecule `N#Cc1ccc(O)cc1C(N)=O` gave a melting point of 268 to 270 °C.
For `CCOC(=O)c1cc2c(F)ccc(Br)c2s1` the value was 73 to 74 °C.
As for `O=C1CCOc2ccc([N+](=O)[O-])cc21`, the figure is 171 to 173 °C; as for `CC(C)(CCCCCCCCCCC(C)(C)C(O)C(=O)O)C(O)C(=O)O` (stereo not drawn), 87 to 100 °C; as for `Cn1nc(-c2ccncc2)nc1-c1ccccn1`, 145 to 146 °C.
For `CCCCCCCCCCCCCCCC(=O)OCc1cc2c(s1)-c1ccccc1OC2c1ccccc1` (stereo not drawn) the value was 64 to 65 °C; for `CCNC(=S)c1ccc2c(c1)Nc1ccccc1S2`, 155 to 156 °C.
Consider `Cc1cc2c(c(C(C)(C)C)c1)OC(=O)C2OC(=O)CCc1cc(C(C)(C)C)c(O)c(C(C)(C)C)c1` (stereo not drawn), for which the melting point lay within 151 to 154 °C.
For `OC1CCCCC1Oc1cccc(COc2cccc3cccnc23)c1` (stereo not drawn) the value was 109 to 110 °C; for `O=C(c1ccc(F)cc1)c1cc(Cl)nnc1Cl`, 71.1 to 72.6 °C.
As for `Cn1c(C(F)(F)F)c(I)c(=O)n(C)c1=O`, the figure is 149 to 151 °C.
As for `COc1ccc(-c2nc(C3=CCN(C)CC3)sc2-c2ccc(OC)cc2)cc1`, the figure is 131 to 132 °C.
